The term IC50 denotes the concentration that gives 50% inhibition. Read a high IC50 as weaker potency in that assay.

This assay addresses T1, Tyrosinase (Agaricus bisporus, UniProt O42713).
T1 sequence (O42713 whole entry): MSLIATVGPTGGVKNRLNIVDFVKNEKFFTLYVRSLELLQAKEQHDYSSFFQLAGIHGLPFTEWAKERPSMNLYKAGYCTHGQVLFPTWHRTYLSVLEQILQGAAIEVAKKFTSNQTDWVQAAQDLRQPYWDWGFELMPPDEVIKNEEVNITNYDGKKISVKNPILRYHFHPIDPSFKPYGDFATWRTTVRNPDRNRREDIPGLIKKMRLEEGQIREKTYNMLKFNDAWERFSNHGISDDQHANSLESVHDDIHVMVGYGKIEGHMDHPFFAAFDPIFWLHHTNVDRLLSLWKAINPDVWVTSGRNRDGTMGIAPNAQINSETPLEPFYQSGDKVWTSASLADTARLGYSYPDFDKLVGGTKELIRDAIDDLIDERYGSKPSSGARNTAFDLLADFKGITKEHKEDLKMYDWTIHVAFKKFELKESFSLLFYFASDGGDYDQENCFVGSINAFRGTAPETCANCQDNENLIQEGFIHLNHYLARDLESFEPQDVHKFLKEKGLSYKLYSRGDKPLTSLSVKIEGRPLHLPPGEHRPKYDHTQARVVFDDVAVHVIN
Description: Inhibition of mushroom tyrosinase

For `Oc1cc(O)cc(CC(c2ccc(O)cc2O)c2c(O)cc(/C=C/c3ccc(O)cc3O)cc2O)c1` (configuration not stated) [ANDALASIN A], the 50% inhibitory concentration (IC50) came out at 39 µM. The value for `Oc1cc(O)cc(/C=C/c2cc(C(Cc3cc(O)cc(O)c3)c3ccc(O)cc3O)c(O)cc2O)c1` (configuration not stated) [ARTOGOMEZIANOL] was 68 µM.

For the origin of these results see ChEMBL document CHEMBL1156378, “A new dimeric stilbene with tyrosinase inhibitiory activity from Artocarpus gomezianus” (J Nat Prod, 2001).
